Results from patent US20120083522A1, “MODULATION OF INFLAMMATORY RESPONSES BY FACTOR XI” (Isis Pharmaceuitcals, inc., priority 2009, published 2012).
In the oligonucleotide strings, read from the 5' end, every base follows the letter of its sugar. An asterisk marks phosphorothioate; unmarked linkages are phosphodiester. Other units and linkages are bracketed, terminal groups are in braces. A string of capitals states the bases alone. e = 2'-O-(2-methoxyethyl) (MOE); [5mC] = 5-methylcytosine; d = 2'-deoxy (DNA)

Experiments:
Format in all cases: in vivo
[1] = Tolerability in CD1 mice: liver function (Example 17); parameters: Albumin: unit not given here; conditions: plasma, 50 mg/kg s.c. twice a week
[2] = Tolerability in CD1 mice: kidney function (Example 17); conditions: plasma, 50 mg/kg s.c. twice a week
Source text: Results are presented in Tables 62 and 63, expressed in mg/dL.

[3] = Tolerability in CD1 mice: hematology assays (Example 17); conditions: for lymphocyte count / monocyte count / neutrophil count: percent of total blood cell count; for HCT / MCH / MCHC / MCV / WBC count: blood, 50 mg/kg s.c. twice a week
Protocol: A control group of five mice was injected subcutaneously with PBS for 2 weeks. All experimental groups (i.e. ASO treated mice at 2, 4, 6 weeks) were compared to the control group (i.e. PBS, 2 weeks).
Blood obtained from all mice groups were sent to Antech Diagnostics for hematocrit (HCT), mean corpuscular volume (MCV), mean corpuscular hemoglobin (MCH), and mean corpuscular hemoglobin concentration (MCHC) measurements and analyses, as well as measurements of the various blood cells, such as WBC (neutrophils, lymphocytes, and monocytes), RBC, and platelets, and total hemoglobin content. Percentages given in the tables indicate the percent of total blood cell count.

[4] = Tolerability in Sprague-Dawley rats: liver function (Example 19); conditions: plasma, 50 mg/kg s.c. twice per week for 6 weeks
Source text: (§1) Urine samples were taken before the start of treatment.

[5] = Tolerability in Sprague-Dawley rats: kidney function (Example 19); conditions: Sprague-Dawley rats, plasma, 50 mg/kg s.c. twice per week for 6 weeks
Source text: as §1

[6] = Tolerability in Sprague-Dawley rats: hematology assays (Example 19); conditions: 50 mg/kg s.c. twice per week for 6 weeks; for MCH / Hemoglobin / MCHC: title says % control
Source text: as §1

[7] = as above; conditions: 50 mg/kg s.c. twice per week for 6 weeks

ATGCCCTTCATGTCTAGGTC (all C 5-methyl, all phosphorothioate, sugars by position not given here; MOE gapmer) [ISIS 416826, 5-10-5 MOE gapmer]
ALT ([1]; 2 weeks): 182 IU/L | AST ([1]; 2 weeks): 274 IU/L | Albumin ([1]; 2 weeks): 3.3 | Bilirubin ([1]; 2 weeks): 0.39 mg/dL | ALT ([1]; 4 weeks): 126 IU/L | AST ([1]; 4 weeks): 156 IU/L | Albumin ([1]; 4 weeks): 3.4 | Bilirubin ([1]; 4 weeks): 0.20 mg/dL | ALT ([1]; 6 weeks): 1954 IU/L | AST ([1]; 6 weeks): 1411 IU/L | Albumin ([1]; 6 weeks): 3.4 | Bilirubin ([1]; 6 weeks): 0.37 mg/dL | BUN ([2]; 2 weeks): 24 mg/dL | creatinine ([2]; 2 weeks): 0.15 mg/dL | BUN ([2]; 4 weeks): 34 mg/dL | creatinine ([2]; 4 weeks): 0.20 mg/dL | BUN ([2]; 6 weeks): 27 mg/dL | creatinine ([2]; 6 weeks): 0.15 mg/dL | RBC count ([3]; 2 weeks): 8 cells/pL | hemoglobin content ([3]; 2 weeks): 13.4 g/dL | platelet count ([3]; 2 weeks): 1498 cells/nL | lymphocyte count ([3]; 2 weeks): 70% | monocyte count ([3]; 2 weeks): 3% | neutrophil count ([3]; 2 weeks): 26% | RBC count ([3]; 4 weeks): 8 cells/pL | hemoglobin content ([3]; 4 weeks): 12.8 g/dL | platelet count ([3]; 4 weeks): 970 cells/nL | lymphocyte count ([3]; 4 weeks): 61% | monocyte count ([3]; 4 weeks): 5% | neutrophil count ([3]; 4 weeks): 33% | RBC count ([3]; 6 weeks): 7 cells/pL | hemoglobin content ([3]; 6 weeks): 11.0 g/dL | platelet count ([3]; 6 weeks): 645 cells/nL | lymphocyte count ([3]; 6 weeks): 67% | monocyte count ([3]; 6 weeks): 8% | neutrophil count ([3]; 6 weeks): 23% | HCT ([3]; 2 weeks): 47% | MCH ([3]; 2 weeks): 17 pg | MCHC ([3]; 2 weeks): 29% | MCV ([3]; 2 weeks): 56 fL | WBC count ([3]; 2 weeks): 5 cells/nL | HCT ([3]; 4 weeks): 41% | MCH ([3]; 4 weeks): 16 pg | MCHC ([3]; 4 weeks): 31% | MCV ([3]; 4 weeks): 52 fL | WBC count ([3]; 4 weeks): 6 cells/nL | HCT ([3]; 6 weeks): 37% | MCH ([3]; 6 weeks): 16 pg | MCHC ([3]; 6 weeks): 30% | MCV ([3]; 6 weeks): 53 fL | WBC count ([3]; 6 weeks): 8 cells/nL | ALT [4]: 611 IU/L | AST [4]: 104 IU/L | Albumin [4]: 6 mg/dL | Bilirubin [4]: 115 mg/dL | BUN [5]: 25 mg/dL | creatinine [5]: 6 mg/dL | Lymphocytes [6]: 5% | MCH [6]: 3 pg | Monocytes [7]: 7% | Neutrophils [7]: 30% | Platelets [7]: 11 10^3/μL | RBC [7]: 5 pL⁻¹ | WBC [7]: 7 nL⁻¹ | HCT ([7]; title says % control): 7% | Hemoglobin ([7]; title says % control): 7 g/dL | MCHC ([7]; title says % control): 4% | MCV ([7]; title says % control): 6 fL

GCCCTTCATGTCTAGGTCCA [ISIS 416825] (eG*e[5mC]*e[5mC]*e[5mC]*eT*dT*d[5mC]*dA*dT*dG*dT*d[5mC]*dT*dA*dG*eG*eT*e[5mC]*e[5mC]*eA) [5-10-5 MOE gapmer]
ALT ([1]; 2 weeks, 50 mg/kg): 64 IU/L | AST ([1]; 2 weeks, 50 mg/kg): 82 IU/L | Albumin ([1]; 2 weeks, 50 mg/kg): 3.6 | Bilirubin ([1]; 2 weeks, 50 mg/kg): 0.41 mg/dL | ALT ([1]; 4 weeks, 50 mg/kg): 314 IU/L | AST ([1]; 4 weeks, 50 mg/kg): 239 IU/L | Albumin ([1]; 4 weeks, 50 mg/kg): 3.4 | Bilirubin ([1]; 4 weeks, 50 mg/kg): 0.69 mg/dL | ALT ([1]; 6 weeks, 50 mg/kg): 507 IU/L | AST ([1]; 6 weeks, 50 mg/kg): 301 IU/L | Albumin ([1]; 6 weeks, 50 mg/kg): 3.5 | Bilirubin ([1]; 6 weeks, 50 mg/kg): 0.29 mg/dL | BUN ([2]; 2 weeks, 50 mg/kg): 29 mg/dL | creatinine ([2]; 2 weeks, 50 mg/kg): 0.14 mg/dL | BUN ([2]; 4 weeks, 50 mg/kg): 35 mg/dL | creatinine ([2]; 4 weeks, 50 mg/kg): 0.21 mg/dL | creatinine ([2]; 6 weeks): 0.17 mg/dL | BUN ([2]; 6 weeks, 50 mg/kg): 31 mg/dL | RBC count ([3]; 2 weeks): 9 cells/pL | hemoglobin content ([3]; 2 weeks): 14.5 g/dL | platelet count ([3]; 2 weeks): 1689 cells/nL | lymphocyte count ([3]; 2 weeks): 82% | monocyte count ([3]; 2 weeks): 2% | neutrophil count ([3]; 2 weeks): 15% | RBC count ([3]; 4 weeks): 9 cells/pL | hemoglobin content ([3]; 4 weeks): 14.1 g/dL | platelet count ([3]; 4 weeks): 1229 cells/nL | lymphocyte count ([3]; 4 weeks): 53% | monocyte count ([3]; 4 weeks): 5% | neutrophil count ([3]; 4 weeks): 43% | RBC count ([3]; 6 weeks): 8 cells/pL | hemoglobin content ([3]; 6 weeks): 12.1 g/dL | platelet count ([3]; 6 weeks): 942 cells/nL | lymphocyte count ([3]; 6 weeks): 71% | monocyte count ([3]; 6 weeks): 4% | neutrophil count ([3]; 6 weeks): 23% | HCT ([3]; 2 weeks, 50 mg/kg): 49% | MCH ([3]; 2 weeks, 50 mg/kg): 17 pg | MCHC ([3]; 2 weeks, 50 mg/kg): 29% | MCV ([3]; 2 weeks, 50 mg/kg): 58 fL | WBC count ([3]; 2 weeks, 50 mg/kg): 8 cells/nL | MCH ([3]; 4 weeks): 16 pg | WBC count ([3]; 4 weeks): 8 cells/nL | HCT ([3]; 4 weeks, 50 mg/kg): 46% | MCHC ([3]; 4 weeks, 50 mg/kg): 31% | MCV ([3]; 4 weeks, 50 mg/kg): 53 fL | HCT ([3]; 6 weeks, 50 mg/kg): 40% | MCH ([3]; 6 weeks, 50 mg/kg): 15 pg | MCHC ([3]; 6 weeks, 50 mg/kg): 31% | MCV ([3]; 6 weeks, 50 mg/kg): 51 fL | WBC count ([3]; 6 weeks, 50 mg/kg): 6 cells/nL | ALT ([4]; 50 mg/kg): 89 IU/L | AST ([4]; 50 mg/kg): 17 IU/L | Albumin ([4]; 50 mg/kg): 2 mg/dL | Bilirubin ([4]; 50 mg/kg): 4 mg/dL | BUN ([5]; 50 mg/kg): 7 mg/dL | creatinine ([5]; 50 mg/kg): 17 mg/dL | Lymphocytes ([6]; 50 mg/kg): 3% | Monocytes ([6]; 50 mg/kg): 15% | Neutrophils ([6]; 50 mg/kg): 25% | RBC ([6]; 50 mg/kg): 2 pL⁻¹ | MCH [6]: 2 pg | Hemoglobin ([6]; 50 mg/kg): 2 g/dL | MCHC ([6]; 50 mg/kg): 4% | Platelets ([7]; 50 mg/kg): 6 10^3/μL | WBC ([7]; 50 mg/kg): 22 nL⁻¹ | HCT ([7]; title says % control, 50 mg/kg): 2% | MCV ([7]; title says % control, 50 mg/kg): 4 fL

GCCCTTCATGTCTAGGTCCA [ISIS 416892] (eG*e[5mC]*e[5mC]*d[5mC]*dT*dT*d[5mC]*dA*dT*dG*dT*d[5mC]*dT*dA*dG*dG*dT*e[5mC]*e[5mC]*eA) [3-14-3 MOE gapmer]
ALT ([1]; 2 weeks, 50 mg/kg): 66 IU/L | AST ([1]; 2 weeks, 50 mg/kg): 121 IU/L | Albumin ([1]; 2 weeks, 50 mg/kg): 3.2 | Bilirubin ([1]; 2 weeks, 50 mg/kg): 0.38 mg/dL | ALT ([1]; 4 weeks, 50 mg/kg): 1526 IU/L | AST ([1]; 4 weeks, 50 mg/kg): 1347 IU/L | Albumin ([1]; 4 weeks, 50 mg/kg): 4.0 | Bilirubin ([1]; 4 weeks, 50 mg/kg): 2.99 mg/dL | ALT ([1]; 6 weeks, 50 mg/kg): 1939 IU/L | AST ([1]; 6 weeks, 50 mg/kg): 1443 IU/L | Albumin ([1]; 6 weeks, 50 mg/kg): 4.4 | Bilirubin ([1]; 6 weeks, 50 mg/kg): 0.50 mg/dL | BUN ([2]; 2 weeks, 50 mg/kg): 19 mg/dL | creatinine ([2]; 2 weeks, 50 mg/kg): 0.11 mg/dL | BUN ([2]; 4 weeks, 50 mg/kg): 28 mg/dL | creatinine ([2]; 4 weeks, 50 mg/kg): 0.20 mg/dL | creatinine ([2]; 6 weeks): 0.17 mg/dL | BUN ([2]; 6 weeks, 50 mg/kg): 23 mg/dL | RBC count ([3]; 2 weeks): 7 cells/pL | hemoglobin content ([3]; 2 weeks): 13.0 g/dL | platelet count ([3]; 2 weeks): 1687 cells/nL | lymphocyte count ([3]; 2 weeks): 79% | monocyte count ([3]; 2 weeks): 3% | neutrophil count ([3]; 2 weeks): 19% | RBC count ([3]; 4 weeks): 9 cells/pL | hemoglobin content ([3]; 4 weeks): 13.5 g/dL | platelet count ([3]; 4 weeks): 636 cells/nL | lymphocyte count ([3]; 4 weeks): 52% | monocyte count ([3]; 4 weeks): 6% | neutrophil count ([3]; 4 weeks): 43% | RBC count ([3]; 6 weeks): 9 cells/pL | hemoglobin content ([3]; 6 weeks): 13.1 g/dL | platelet count ([3]; 6 weeks): 1004 cells/nL | lymphocyte count ([3]; 6 weeks): 64% | monocyte count ([3]; 6 weeks): 7% | neutrophil count ([3]; 6 weeks): 28% | HCT ([3]; 2 weeks, 50 mg/kg): 48% | MCH ([3]; 2 weeks, 50 mg/kg): 18 pg | MCHC ([3]; 2 weeks, 50 mg/kg): 30% | MCV ([3]; 2 weeks, 50 mg/kg): 59 fL | WBC count ([3]; 2 weeks, 50 mg/kg): 5 cells/nL | MCH ([3]; 4 weeks): 16 pg | WBC count ([3]; 4 weeks): 8 cells/nL | HCT ([3]; 4 weeks, 50 mg/kg): 42% | MCHC ([3]; 4 weeks, 50 mg/kg): 32% | MCV ([3]; 4 weeks, 50 mg/kg): 49 fL | HCT ([3]; 6 weeks, 50 mg/kg): 45% | MCH ([3]; 6 weeks, 50 mg/kg): 16 pg | MCHC ([3]; 6 weeks, 50 mg/kg): 30% | MCV ([3]; 6 weeks, 50 mg/kg): 53 fL | WBC count ([3]; 6 weeks, 50 mg/kg): 9 cells/nL | ALT ([4]; 50 mg/kg): 113 IU/L | AST ([4]; 50 mg/kg): 183 IU/L | Albumin ([4]; 50 mg/kg): 8 mg/dL | Bilirubin ([4]; 50 mg/kg): 1 mg/dL | BUN ([5]; 50 mg/kg): 188 mg/dL | creatinine ([5]; 50 mg/kg): 1 mg/dL | Lymphocytes ([6]; 50 mg/kg): 18% | Monocytes ([6]; 50 mg/kg): 58% | Neutrophils ([6]; 50 mg/kg): 92% | RBC ([6]; 50 mg/kg): 12 pL⁻¹ | MCH [6]: 2 pg | Hemoglobin ([6]; 50 mg/kg): 14 g/dL | MCHC ([6]; 50 mg/kg): 0% | Platelets ([7]; 50 mg/kg): 66 10^3/μL | WBC ([7]; 50 mg/kg): 68 nL⁻¹ | HCT ([7]; title says % control, 50 mg/kg): 13% | MCV ([7]; title says % control, 50 mg/kg): 1 fL
